# Assays:
# 20S-REGγ complex = target: T1, 20S-REGγ complex (Homo sapiens, UniProt P61289); test: First confirmatory counter-screen of hits, fluorescence kinetic proteasome activity test; assay type: biochemical; conditions: counter-screen at 10, 20 and 40µM, 90min kinetic assay
# T1 construct: purchased Biotechne E-360-050 (20S); E-384-MTO (REGγ); host or cells: 20S from human erythrocytes
# Experimental: The 3 chemical libraries tested were obtained from the NIH : The Natural Products set (NP.V) consisting of 390 compounds, the Oncology Approved Drugs set (AOD.IX) consisting of 147 FDA-approved compounds and the Diversity set (DIV.VI) consisting of 1584 compounds. Libraries were prepared and screened with a Biomek FXP workstation in 384 well plates. Compounds activity was assessed using a fluorescence activity test of the proteasome using the Bz-VGR-AMC fluorogenic substrate (#BML-BW9375-0005, Enzo Life Sciences). […] After preparation of the mix, plates were incubated for 2h at 37°C before being read on a Spectramax i3 microplate reader from Molecular devices (Excitation wavelength : 345nm; Emission wavelength : 445nm). […]
# After QC verification, each plate was normalized to the mean of the VGR control. For every quadruplicate the most different value from the mean was eliminated and the fluorescence mean for each compound was calculated on the 3 remaining values. The percentage of inhibition of a compound was calculated according to, as follows : %Inhibition(compound) = (MeanREG,plate −Meancompound)/(MeanREG,plate −Mean20S,plate) × 100, [formula] for the condition with REG[…]. […]
# (§1) After conducting the screening and validating the quality control using a custom algorithm, they analyzed the data to select their hits. […]
# [1] = tested on: human constitutive 20S proteasome (h20S); test: Peptide degradation assay with Fluorescamine (KH-52), 20S alone; assay type: biochemical; conditions: different concentrations tested, 37°C
# Experimental: Degradation of the 52 amino acid peptide KH-52: […], Boulpicante et al.) by the 20S proteasome was followed by amino-acid group generation using Fluorescamine (#F9015, Sigma-Aldrich). The peptide substrate was incubated at 100µM with 25nM 20S, with or without 160nM REGγ and with different concentration of the tested compounds or DMSO. Assays were performed in 100µL in phosphate buffer (pH 6.8) and incubated at 37°C in a water bath for 8 hours. After 4, 6 and 8 hours, 22µL of sample were retrieved and added to 88µL of phosphate buffer before being stored at - 20°C prior to revelation. For the revelation, samples were thawed and filtered in a centrifuge 20min at 4°C 1kDa filters (#OD003C34, Pall Corporation). To avoid any amino group contamination, filtered were washed in phosphate buffer before use. 20µL of filtered-sample were plated in triplicates in a black 96-wells plate (#237108, Thermo Scientific) and 10µL of fluorescamine (1mg/mL, in 100% acetone) was added to the samples. The plate was placed on agitation for 1min before the reaction was stopped by adding 200µL of water to each well. The fluorescence intensity was measured using a FluoSTAR plate reader (BMG Labtech) with excitation wavelength at 355nm and emission wavelength at 460nm.
# These findings were established through both in vitro degradation assays and T cell experiments. […]
# 20S proteasome = tested on: T2, 20S proteasome; test: Second confirmatory counter-screen of hits on the proteasome alone; assay type: biochemical, human; conditions: counter-screen on 20S proteasome only, without REGγ
# T2 construct: purified 20S proteasome from human erythrocytes; purchased Biotechne E-360-050; host or cells: human erythrocytes
# Experimental: The 3 chemical libraries tested were obtained from the NIH : The Natural Products set (NP.V) consisting of 390 compounds, the Oncology Approved Drugs set (AOD.IX) consisting of 147 FDA-approved compounds and the Diversity set (DIV.VI) consisting of 1584 compounds. Libraries were prepared and screened with a Biomek FXP workstation in 384 well plates. Compounds activity was assessed using a fluorescence activity test of the proteasome using the Bz-VGR-AMC fluorogenic substrate (#BML-BW9375-0005, Enzo Life Sciences). 50µM of the fluorogenic substrate was used with 20µM of the tested compound, and 2nM of 20S human proteasome (#E-360-050, Biotechne) in presence or absence of 50nM of human REGγ (#E-384-MTO, Biotechne). After preparation of the mix, plates were incubated for 2h at 37°C before being read on a Spectramax i3 microplate reader from Molecular devices (Excitation wavelength : 345nm; Emission wavelength : 445nm). […]
# Using the control condition without REGγ, they then eliminated compounds that were inhibiting the 20S proteasome, using the 95% interval of confidence of the 20S control for each plate. […] Fluorescence was measured every minute with a FLUOstar plate reader (BMG Labtech). […]
# as §1
# REGγ = REGγ (Homo sapiens, UniProt P61289); test: Thermal Shift Assay (nanoDSF) with REGγ; assay type: binding; conditions: REGγ 500nM, compound at 40X (20µM, 0,4% DMSO)
# Experimental: Thermal shift assay was carried out with nano differential scanning fluorimetry (nanoDSF) using the Tycho NT.6 from Nanotemper and was performed at the I2BC platform (Gif-sur-Yvette). Samples were prepared in a final volume of 25µL in a 96-well plate prior to be loaded on the Tycho capillaries. Proteins were diluted in activity buffer (20mM Tris-HCl pH 7.4 and 20mM NaCl). After optimisation, REGγ concentration was set to 500nM and 20S concentration to 50nM. Compounds concentrations were determined as ratios to protein concentration and to stay below 0,5% of DMSO; accordingly, compounds with REGγ were tested at 40X (20µM, 0,4% DMSO) and at 100X (5µM, 0,1% DMSO) with 20S. A thermal ramp was applied from 20 to 95°C and fluorescence was followed at 350nm and 330 nm, measuring intrinsic fluorescence of the proteins from tryptophan and tyrosine residues. Binding was detected as a shift in the inflection temperature (Ti) compared to the DMSO control.
# To assess the efficacy of molecule 58 in directly binding to REGγ, inventors conducted a thermal shift assay (TSA). TSA leverages the property of proteins to undergo unfolding at specific temperatures, and the interaction with a ligand can alter the thermal stability, leading to a shift in the unfolding temperature. In their study, inventors examined how the compound 58 interacted with REGγ and monitored the change in melting temperature (ΔTm).
# T1 sequence (P61289 whole entry, one chain of several): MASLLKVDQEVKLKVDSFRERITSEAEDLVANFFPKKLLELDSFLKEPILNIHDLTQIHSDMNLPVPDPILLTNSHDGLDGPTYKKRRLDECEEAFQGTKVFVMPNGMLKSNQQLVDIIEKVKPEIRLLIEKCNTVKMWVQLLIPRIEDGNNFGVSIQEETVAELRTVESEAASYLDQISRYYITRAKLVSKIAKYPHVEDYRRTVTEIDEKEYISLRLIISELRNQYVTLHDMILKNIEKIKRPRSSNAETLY
# REGγ, sequence (P61289 whole entry): as the sequence (P61289 whole entry, one chain of several) above
structure (smiles),measurement,setting,value
Cc1ccc(N=Nc2ccc(C)cc2NC(=O)Nc2ccccc2F)cc1 [compound 58],inhibition of the effect of REGγ on proteasomal protein degradation,20S-REGγ complex,inhibit the effect of REGγ on proteasomal protein degradation
same,rate of peptide bond hydrolysis of KH-52,[1],no impact
same,inhibition of the 20S core alone,20S proteasome,without inhibiting the 20S core alone
same,change in melting temperature (ΔTm),REGγ,substantial increase in ΔTm
